In brackets after ≈: the same amount, converted by molar mass. Several values for one entry are separate records, joined by “and”; a condition that tells them apart may be missing. Identical values can stand only once.
Experiments:
Type in all cases: in vivo
[1] = Antiamphetamine activity (method of Weissman et al., mice instead of rats); details: mice
Method: Neuroleptic drugs are said to bind to postsynaptic dopamine receptors in the brain, thereby blocking dopaminergic transmission. […] Based on this, an assay for possible neuroleptic activity was developed and is commonly used. […] 151, 339 (1966)), except that mice were used instead of rats. A comparison under the same conditions was also made of the antiamphetamine activity of a standard neuroleptic drug, haloperidol, which gave an ED50 value of 0.5 mg/Kg (Table 2).

[2] = system: Pimephales promelas; assay: Acute toxicity to fish; details: for % Mortality, Avg / % Mortality, single replicates (1 to 6): 2 hours
Method: Many compounds having insecticidal activity also show toxicity to fish. For example, rotenoids, pyrethrins, and DDT have significant toxicity to fish. For this reason, fish have been used frequently to indicate potential insecticidal activity. The present compounds were tested for acute toxicity to fish by the method described in "Methods For Acute Toxicity Tests With Fish, Macro-Invertebrates and Amphibians", EPA 660/3-75-009, Committee on Methods for Toxicity Tests With Aquatic Organisms, Environmental Protection Agency, Corvallis, OR, 1975.
The fish, commonly known as Missouri minnows or fat heads (Pimephales promelas, family, cyprinidae) were purchased from a local hatchery and equilibrated to the new surroundings for 24 hours. They were kept in deionized water, previously adjusted to pH 6.5 with phosphate buffer at 23° C. Sufficient oxygen was provided, and the fish were deprived of food during the test period.
Groups of six fish were placed in containers with different concentrations of the test compound. The percent mortality was recorded every 30 minutes. The LC 50 values (mg/L) and 95% confidence limits were determined from the percent mortality data after 2 hours of exposure from 6 separate replicates using the method of Lichfield and Wiloxon [(J. Pharmacology and Exp. Therepeutics, 96, 99-113 (1949))].

[3] = system: cabbage looper (Trichoplusia ni [Hubner]); assay: Insecticidal activity against cabbage looper; details: both application rates, 1000 and 500 ppm, 14 days
Method: (§1) The present compounds were tested for insecticidal activity against cabbage looper (Trichoplusia ni [Hubner]), and southern armyworm (Spodoptera eridania) at application rates of 1000 and 500 ppm. The tests were conducted in petri dishes containing a solid food source in which the test compounds had been incorporated. The petri dishes containing the treated food source were infested with second instar larvae of southern armyworms or cabbage loopers. Ten larvae per replicate and two replicates per test rate were used. Mortality data were taken 14 days after infestation.

[4] = system: southern armyworm (Spodoptera eridania); assay: Insecticidal activity against southern armyworm; details: both application rates, 1000 and 500 ppm, 14 days
Method: as §1

[5] = system: mosquito larvae (Aedes aegypti); assay: Mosquito larvae test; details: 24 hours
Method: Similarly, in a test using mosquito larvae (Aedes aegypti) as the insect test species, SC-7 gave 15% mortality and SC-8 gave 93% mortality at an application rate of 100 ppm. In this test, one ml of a solution of 1000 ppm of the test compound in 10% acetone - 90% water was added to 9 ml of water in a culture tube. Ten mosquito larvae were added, and mortality readings were taken 24 hours later.

[6] = system: mice; assay: Neuroleptic / CNS-depressant activity in experimental animals (general statements)

O=C(CCCN1CCC(O)(c2ccc(Cl)cc2)CC1)c1ccc(F)cc1 [Haloperidol, haloperidol, reference compound]
ED50 ([1]; Mus musculus, inhibition of amphetamine-induced agitation, stereotypy, body-hydration): 0.5 mg/kg | % Inhibition (antiamphetamine activity) ([1]; dose 0.05 mg/Kg): 10% | % Inhibition (antiamphetamine activity) ([1]; dose 0.1 mg/Kg): 20% | % Inhibition (antiamphetamine activity) ([1]; dose 0.5 mg/Kg): 40% | % Inhibition (antiamphetamine activity) ([1]; dose 0.75 mg/Kg): 50% | % Inhibition (antiamphetamine activity) ([1]; dose 1.0 mg/Kg): 60% | % Inhibition (antiamphetamine activity) ([1]; dose 1.3 mg/Kg): 70% | % Inhibition (antiamphetamine activity) ([1]; dose 1.8 mg/Kg): 90%

COc1ccc(C(O)C(C)Oc2ccc([C@@H]3O[C@@H](c4ccc(OC(C)C(O)c5ccc6c(c5)OCO6)c(OC)c4)[C@@H](C)[C@@H]3C)cc2OC)cc1OC (stereo partly drawn) [SC-7, 2α-[3-methoxy-4-{threo-3-hydroxy-3-(3,4-dimethoxyphenyl)}isopropoxyphenyl]-5β-[3-methoxy-4-{threo-3-hydroxy-3-(3,4-methylenedioxyphenyl)}isopropoxyphenyl]-3α,4β-dimethyltetrahydrofuran]
% Mortality, Avg ([2]; 0.03 mg/L): 6% | % Mortality, single replicates (1 to 6) ([2]; 0.03 mg/L, 120 min): 0% (4×) and 17% (2×) | % Mortality, Avg ([2]; 0.06 mg/L): 38% | % Mortality, single replicates (1 to 6) ([2]; 0.06 mg/L, 120 min): 33% (4×) and 17% (2×) | % Mortality, Avg ([2]; 0.09 mg/L): 41% | % Mortality, single replicates (1 to 6) ([2]; 0.09 mg/L, 120 min): 50% and 33% (5×) | % Mortality, Avg ([2]; 0.13 mg/L): 58% | % Mortality, single replicates (1 to 6) ([2]; 0.13 mg/L, 120 min): 83% and 67% and 50% (4×) | % Mortality, Avg ([2]; 0.25 mg/L): 86% | % Mortality, single replicates (1 to 6) ([2]; 0.25 mg/L, 120 min): 100% (2×) and 83% (3×) and 67% | % Mortality, Avg ([2]; 0.5 mg/L): 100% | % Mortality, single replicates (1 to 6) ([2]; 0.5 mg/L): 100% | LC50 ([2]; 2 hours of exposure, pH 6.5, 23° C): 0.115 µg/mL (≈ 0.16 µM) | insecticidal activity, cabbage looper [3]: essentially inactive | insecticidal activity, southern armyworm [4]: essentially inactive | mortality at 100 ppm [5]: 15% | CNS-depressant activity ([6]; experimental animals / mice): activity similar to SC-8 | neuroleptic activity ([6]; mouse, in vivo): neuroleptically active
